In ChEMBL document CHEMBL3102737, “Synthesis of novel pyrano[3,2-f]quinoline, phenanthroline derivatives and studies of their interactions with proteins: an application in mammalian cell imaging” (Eur J Med Chem, 2014):

The compounds below were run on HeLa (assay: Protein binding in human HeLa cells at 1 mM incubated for 10 mins under dark by fluorescence microscopic analysis). Settings: 1000 µM; call rule not given here.
Format: ADME, cell-based

With CCN1c2ccc3oc(=O)ccc3c2C(=O)CC1(C)C as the compound, how does the PB read?
The PB was “Active”.

For Cn1c(=O)ccc2c3c(ccc21)NC(C)(C)CC3=O, which PB is on record?
The PB was “Not Active”.

With CN1c2ccc3c(ccc(=O)n3C)c2C(=O)CC1(C)C as the compound, how does the PB read?
Its PB is “Active”.

With CCN1c2ccc3c(ccc(=O)n3C)c2C(=O)CC1(C)C as the compound, how does the PB read?
The PB was “Active”.

With CCn1c(=O)ccc2c3c(ccc21)NC(C)(C)CC3=O as the compound, how does the PB read?
Its PB is “Active”.

Which PB does the source give for CCn1c(=O)ccc2c3c(ccc21)N(C)C(C)(C)CC3=O here?
Its PB is “Active”.

How did the PB turn out when CCN1c2ccc3c(ccc(=O)n3CC)c2C(=O)CC1(C)C was run?
The PB was “Active”.

With CC1(C)CC(=O)c2c(ccc3oc(=O)ccc23)N1 as the compound, how does the PB read?
The PB was “Active”.

Which PB does the source give for CN1c2ccc3oc(=O)ccc3c2C(=O)CC1(C)C here?
Its PB is “Not Active”.
